From patent publication US20190300845A1, “SEQUENTIAL ADDITION OF MOLECULAR GERMINANTS TO BACTERIAL SPORES” (NOVOZYMES BIOAG A/S, priority 2016, published 2019)

Tests used:
[1] = tested on: spores from Bacillus pumilus strain SB3189; experiment: Germinant testing by decrease in relative OD580; assay type: cell-based; details: substance alone, at a concentration of 3 mM
[2] = tested on: Bacillus subtilis strain SB3086 spores; experiment: Sequential germinant addition, germination by dipicolinic acid (DPA) release (Tb-DPA fluorescence); assay type: cell-based
Procedure: Bacterial spores from Bacillus subtilis strain SB3086 were prepared as described in the first paragraph of Example 1. The spore preparations were washed in sterile 4° C. water by centrifugation (10,000×g, 1 minute), aspirating the supernatant from the pellet, and suspending the spore pellet in water. This was performed three consecutive times. Optical densities of washed spore preparations were measured in sterile water at 4° C. using a Synergy H4 Multi-Mode Reader (Bio-Tek). The spore preparations were set to 5 OD600 units per ml. By phase-contrast microscopy, 99% of the particles in the samples appeared to be ungerminated spores.
The spores were then treated with 1 mM of L-alanine for 24 hours at 4° C. […] In one experiment, spores that had been treated with 1 mM L-alanine for 24 hours were washed in water to remove the L-alanine. Negative controls were not treated with L-alanine. Spores to be used as positive controls were boiled for 2 hours to release dipicolinic acid (see below).
(§1) Germination of spores in these studies was determined by measuring dipicolinic acid (DPA). DPA is about 10% of the mass of endospores, which is generally released when germination occurs. Boiling spores generally releases all of the DPA (used as a positive control). DPA release was detected using terbium chloride (TbCl3), as described below.
(§2) To perform the germination assays, 30 μl of spores were added to wells of a 96-well flat-bottom microtiter plate. Subsequently, 35 μl of a 250 μM TbCl3 stock was added. At time 0, 85 μl of a D-fructose solution was added, to give a final concentration of 10 mM D-fructose. The solution was mixed by pipetting, the microtiter plate was placed into a plate reader (Synergy H4 Multi-Mode Reader, Bio-Tek), and the sample wells were measured for presence of a fluorescent Tb-DPA product over time. Tb-DPA is excited at 270 nm and emits at 545 nm. All experimental samples were tested in triplicate. Baseline controls for each sample were generated by omitting L-alanine and these were performed in duplicate. All sample wells were measured immediately after D-fructose was added (time 0) and then over time. For each time point, the data were normalized to values for the spores that had been boiled for two hours to force 100% release of DPA from the spores.

[3] = tested on: Bacillus pumilus strain SB3189 spores; experiment: as above; assay type: cell-based
Procedure: as §1, §2
The experiment was generally performed as described in Example 3. SB3189 spores were treated with various concentrations of L-alanine (0.0 mM, 0.5 mM, 1.0 mM, 2.0 mM, 3.0 mM, 4.0 mM, 5.0 mM, 6.0 mM, 7.0 mM, 8.0 mM, 9.0 mM, or 10.0 mM) for 24 hours at 4° C. […] D-fructose (10 mM) was then added to the L-alanine-treated spores (this was time 0) and DPA levels were measured over time.

[4] = tested on: Bacillus megaterium strain SB3112 spores; experiment: KBr pretreatment, germination by dipicolinic acid (DPA) release (Tlag, Gmax); assay type: cell-based
Procedure: as §1, §2
These studies were generally performed as described in Example 3. SB3112 spores, heat-activated or not heat-activated (not heat-activated are called “native”), were treated with 0.5, 3.0, or 10.0 mM KBr overnight at either 4° or 22° C. […] The time at which the subsequent addition was made to the spores was considered time 0. DPA concentration was measured over time.
To facilitate comparison of the different samples, values for Tlag and Gmax were calculated for each spore treatment. Tlag is the time after exposure to germinants that a population of spores begins to rapidly release DPA into the environment. Tlag indicates, in part, how rapidly a population of spores responds to germinants. Gmax is the maximum percentage of DPA that a sample releases during an experiment, divided by the DPA released by the sample when boiled. Gmax is proportional to the percentage of spores in a population that germinates.

[5] = tested on: spores from Bacillus megaterium strain SB3112; experiment: Germinant testing by decrease in relative OD580; assay type: cell-based; details: amino acid along with KBr and D-glucose; each 3 mM
[6] = tested on: spores from Bacillus amyloliquefaciens strain SB3615; experiment: Germinant testing by decrease in relative OD580

O=C(CO)[C@@H](O)[C@H](O)[C@H](O)CO [D-fructose]
Germination of spores (decrease in relative OD580) [1]: None
Germination (DPA release) with D-fructose ([2]; 10 mM D-fructose, spores not treated with L-alanine): did not germinate
Germination (DPA release) in presence of D-fructose ([3]; 10 mM D-fructose, spores not treated with L-alanine (0 mM)): did not germinate

[Br-].[K+] [KBr]
Gmax ([4]; heat-activated spores, 0.5 mM KBr overnight at 4° C. before full germinant solution): 92%
Gmax ([4]; heat-activated spores, 0.5 mM KBr overnight at 22° C. before full germinant solution): 65%
Gmax ([4]; heat-activated spores, 3.0 mM KBr overnight at 4° C. before full germinant solution): 123%
Gmax ([4]; heat-activated spores, 3.0 mM KBr overnight at 22° C. before full germinant solution): 65%
Gmax ([4]; heat-activated spores, 10.0 mM KBr overnight at 4° C. before full germinant solution): 85%
Gmax ([4]; heat-activated spores, 10.0 mM KBr overnight at 22° C. before full germinant solution): 61%
Gmax as compared to spores not pretreated with KBr ([4]; heat-treated spores, at 22° C., 0.5, 3.0, or 10.0 mM KBr): decreased
Percentage of spores that germinated (Gmax) as compared to spores not pretreated with KBr ([4]; native or heat-treated spores, at 4° C., 3.0 or 10.0 mM KBr): increased
Gmax ([4]; native spores, 0.5 mM KBr overnight at 4° C. before full germinant solution): 24%
Gmax ([4]; native spores, 0.5 mM KBr overnight at 22° C. before full germinant solution): 62%
Gmax ([4]; native spores, 3.0 mM KBr overnight at 4° C. before full germinant solution): 31%
Gmax ([4]; native spores, 3.0 mM KBr overnight at 22° C. before full germinant solution): 96%
Gmax ([4]; native spores, 10.0 mM KBr overnight at 4° C. before full germinant solution): 29%
Gmax ([4]; native spores, 10.0 mM KBr overnight at 22° C. before full germinant solution): 103%
Tlag as compared to spores not pretreated with KBr ([4]; some samples: 4° C. native spores 3.0 or 10.0 mM KBr, 22° C. heat-activated spores 0.5 mM KBr): different

C[C@H](N)C(=O)O [L-alanine]
Germination of spores (decrease in relative OD580) [1]: None
Germination of spores (decrease in relative OD580) [5]: caused germination of the spores
Germination as a result of the L-alanine treatment, determined by microscopy ([2]; 1 mM L-alanine for 24 hours at 4° C., before D-fructose): No germination
Germination (DPA release) when D-fructose was added ([2]; L-alanine 24 hours, washed out prior to addition of D-fructose): did not germinate
Germination (DPA release) when D-fructose was added ([2]; spores treated with 1 mM L-alanine for 24 hours, then 10 mM D-fructose): germinated
Germination due to the L-alanine treatment, determined by microscopy ([3]; 0.5-10.0 mM L-alanine for 24 hours at 4° C., before D-fructose): no germination
Extent of germination versus amount of L-alanine ([3]; 0.5 to 10 mM L-alanine pretreatment, then 10 mM D-fructose): increased as the amount of L-alanine increased
Germination (DPA release) on addition of D-fructose ([3]; spores treated with L-alanine 24 hours, then D-fructose (10 mM) at time 0): caused germination
Molecules causing germination ([6]; strain SB3615, each substance 3 mM): L-alanine
Germination of spores (decrease in relative OD580) ([6]; substance alone, 3 mM, heat-activated spores, 37° C., 70 minutes): could cause germination

N[C@@H](CS)C(=O)O [L-cysteine]
Germination of spores (decrease in relative OD580) [1]: None

N[C@@H](Cc1c[nH]cn1)C(=O)O [L-histidine]
Germination of spores (decrease in relative OD580) [5]: caused germination of the spores

CC[C@H](C)[C@H](N)C(=O)O [L-isoleucine]
Germination of spores (decrease in relative OD580) [5]: caused germination of the spores

CC(C)C[C@H](N)C(=O)O [L-leucine]
Germination of spores (decrease in relative OD580) [5]: caused germination of the spores

N[C@@H](Cc1ccccc1)C(=O)O [L-phenylalanine]
Germination of spores (decrease in relative OD580) [5]: caused germination of the spores

O=C(O)[C@@H]1CCCN1 [L-proline]
Germination of spores (decrease in relative OD580) [5]: caused germination of the spores

OC[C@H]1O[C@@](CO)(O[C@H]2O[C@H](CO)[C@@H](O)[C@H](O)[C@H]2O)[C@@H](O)[C@@H]1O [sucrose]
Germination of spores (decrease in relative OD580) [1]: None
